Results taken from US11059795B2, “Androgen receptor modulators and methods for their use” (ESSA Pharma, Inc., priority 2018, dated 2021).

What was measured:
[1] = target: T1, androgen receptor (AR) (Homo sapiens, UniProt P10275, T878A); assay: Androgen-induced PSA (6.1 kb)-luciferase reporter assay in LNCaP cells; assay type: cell-based; settings: LNCaP cells transfected with PSA (6.1 kb)-luciferase reporter, R1881 1 nM, 24 h; read-out: PSA-Luc IC50 Range
T1 construct: LNCaP cells were transiently transfected with the PSA (6.1 kb)-luciferase reporter for 24 h; endogenous in cells; host or cells: LNCaP
T1 sequence (P10275 1-920 T878A): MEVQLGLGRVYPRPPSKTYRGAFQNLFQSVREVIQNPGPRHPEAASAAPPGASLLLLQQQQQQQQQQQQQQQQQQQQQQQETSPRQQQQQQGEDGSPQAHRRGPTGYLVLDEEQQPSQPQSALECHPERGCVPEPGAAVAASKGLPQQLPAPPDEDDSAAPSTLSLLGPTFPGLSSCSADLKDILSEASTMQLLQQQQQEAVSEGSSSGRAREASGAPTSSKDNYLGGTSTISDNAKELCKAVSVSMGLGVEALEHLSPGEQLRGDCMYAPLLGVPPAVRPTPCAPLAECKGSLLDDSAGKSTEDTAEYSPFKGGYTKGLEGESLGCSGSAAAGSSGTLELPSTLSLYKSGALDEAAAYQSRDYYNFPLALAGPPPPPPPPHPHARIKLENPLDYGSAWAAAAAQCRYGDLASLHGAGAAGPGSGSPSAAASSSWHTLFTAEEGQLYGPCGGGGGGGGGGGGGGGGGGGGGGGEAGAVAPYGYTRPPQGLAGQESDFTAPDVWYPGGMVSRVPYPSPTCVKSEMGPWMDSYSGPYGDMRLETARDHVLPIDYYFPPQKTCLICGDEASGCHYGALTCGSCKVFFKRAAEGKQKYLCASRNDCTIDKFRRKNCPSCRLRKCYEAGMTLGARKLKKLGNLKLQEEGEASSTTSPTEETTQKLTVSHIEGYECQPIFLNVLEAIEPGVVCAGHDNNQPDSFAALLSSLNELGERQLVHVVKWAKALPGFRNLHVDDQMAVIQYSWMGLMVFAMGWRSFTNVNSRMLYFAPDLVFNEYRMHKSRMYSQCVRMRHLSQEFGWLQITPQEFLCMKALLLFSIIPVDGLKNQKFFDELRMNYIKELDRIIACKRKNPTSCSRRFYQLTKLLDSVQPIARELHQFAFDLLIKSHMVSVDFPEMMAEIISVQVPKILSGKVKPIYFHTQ
In short: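 Read-out is firefly luminescence (10 s) in LNCaP lysates, normalized to protein, from an ARE-containing PSA (6.1 kb)-luciferase reporter driven by androgen.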

[2] = Microsomal stability assay, mouse liver microsomes; assay type: in vitro ADME; settings: 1 μM compound, 0.5 mg/mL protein, 37° C.; for microsomal CLint at 1 μM: mouse, liver microsomes, pH 7.4, mouse liver microsomes, read-out: MLM +30/− NADPH: Clint (μL/min/mg protein); for MLM +30/− NADPH: Clint (μL/min/mg protein): mouse liver microsomes
Protocol: Microsomal stability assay is a widely used in vitro model to characterize the metabolic conversion by phase I enzymes, such as cytochrome P450 (CYP) enzymes. Since metabolism is known to be highly variable in different species, microsomal stability assay is commonly run in multiple species. Metabolic stability of testing compound can be evaluated using human, rat, mouse, or other animal liver or intestine microsomes to predict intrinsic clearance.
The assay was carried out in 96-well microtiter plates at 37° C. Reaction mixtures (25 μL) contained a final concentration of 1 μM test compound, 0.5 mg/mL liver microsomes protein, and 1 mM NADPH and/or 1 mM UDPGA (with alamethicin) in 100 mM potassium phosphate, pH 7.4 buffer with 3 mM MgCl2. The incubation was done with N=1, but duplicate incubation at each time point can be prepared if necessary. At each of the time points (for example, 0, 15, 30, and 60 minutes), 150 μL of quench solution (100% acetonitrile with 0.1% formic acid) with internal standard was transferred to each well. Besides the zero minute controls, mixtures containing the same components except the NADPH can also be prepared as the negative control. Verapamil was included as a positive control to verify assay performance. Plates were sealed, vortexed, and centrifuged at 4° C. for 15 minutes at 4000 rpm. The supernatant is transferred to fresh plates for LC/MS/MS analysis.
Summarized conditions: [Compound]=[…], [LM]=0.5 mg/mL, [NADPH]=1 mM and/or [UDPGA]=1 mM, Buffer=100 mM Potassium Phosphate, pH 7.4 with 3 mM MgCl2, Time=0, 15, 30, and 60 min, and Temperature=37° C.
(§1) All samples were analyzed on LC/MS/MS using an AB Sciex API 4000 instrument, coupled to a Shimadzu LC-20AD LC Pump system. Analytical samples were separated using a Waters Atlantis T3 dC18 reverse phase HPLC column (20 mm×2.1 mm) at a flow rate of 0.5 mL/min. The mobile phase consisted of 0.1% formic acid in water (solvent A) and 0.1% formic acid in 100% acetonitrile (solvent B).
The extent of metabolism is calculated as the disappearance of the test compound, compared to the 0-min time incubation. Initial rates are calculated for the compound concentration and used to determine half-life (t½) values and subsequently, the intrinsic clearance (Clint). Clint=(0.693)(1/t½ (min))(g of liver/kg of body weight)(mL incubation/mg of microsomal protein)(45 mg of microsomal protein/g of liver weight)

[3] = Microsomal stability assay, human liver microsomes; assay type: in vitro ADME; settings: 0.5 mg/mL protein, 37° C.; for microsomal CLint at 1 μM: pH 7.4, 1 μM compound, read-out: HLM +/− NADPH: Clint (μL/min/mg protein)
In short: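 Compound at 1 μM was incubated at 37° C with 0.5 mg/mL liver microsomes and 1 mM NADPH and/or 1 mM UDPGA (with alamethicin) in 100 mM potassium phosphate pH 7.4, 3 mM MgCl2. Samples were taken at 0, 15, 30 and 60 min and measured by LC/MS/MS. t½ came from compound loss relative to 0 min, and Clint was scaled with 45 mg microsomal protein/g liver.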

[4] = Hepatocyte stability assay, mouse hepatocytes; assay type: in vitro ADME; settings: 1 μM compound, 0.5 million cells/mL, 37° C.; for hepatocyte CLint at 1 μM: mouse, cryopreserved hepatocytes, read-out: MH +/− NADPH: Clint (μL/min/million cells)
Source text: The […] of in vitro intrinsic clearance (Clint) for drug candidates in the early discovery stage is common practice in the pharmaceutical industry. The Clint values of drug candidates can help to confirm whether metabolism is the main clearance pathway when it is compared with the total body clearance in vivo. Hepatocytes are among the routinely used in vitro systems for measuring clearance. Hepatocytes have been reported to retain most of the phase I and phase II metabolic activities, and therefore, it is a useful tool to estimate the intrinsic clearance for potential drug candidates.
Metabolic stability of testing compound were be evaluated using human and mouse hepatocytes and can also be use rat, mouse, or other animal hepatocytes to predict intrinsic clearance. Cryopreserved hepatocytes were removed from the liquid nitrogen tank and thawed in a 37° C. water bath. As soon as the cells pulled away from the vial wall, they were decanted into 48 ml of warm HT medium. Cells were centrifuged for four minutes at 420 rpm (50 g). After removing the supernatant, pellet was re-suspended in warm DMEM medium. Cell density was counted by a hemacytometer.
The assay was carried out in 96-well microtiter plates. Compounds were incubated for 0, 60, 120, and 180 minutes at 37° C. with hepatocytes. Reaction mixtures (50 μL) contained a final concentration of 1 μM test compound, 0.5 million cells/mL hepatocytes in the DMEM medium. At each of the time points (for example, 0, 1, 2, and 3 hours), 200 μL of quench solution (100% acetonitrile with 0.1% formic acid) with internal standard was transferred to each well. Midazolam was included as a positive control to verify assay performance. Plates were sealed and centrifuged at 4° C. for 15 minutes at 4000 rpm. The supernatant is transferred to fresh plates for LC/MS/MS analysis.
Summarized conditions (customizable): [Compound]=[…], Positive control: midazolam and/or naloxone, [Hepatocyte]=0.5 million cells/Ml, time=0, 60, 120, and 180 min, t=37° C.
as §1
The extent of metabolism was calculated as the disappearance of the test compound, compared to the 0-min control reaction incubations. Initial rates were calculated for the compound concentration and used to determine t½ values and subsequently, the intrinsic clearance, Clint. Clint=(0.693)(1/t½(min))(mL incubation/million cells)

IC50 [1]	microsomal CLint at 1 μM [2]	microsomal CLint at 1 μM [3]	hepatocyte CLint at 1 μM [4]	Structure (SMILES)	MLM +30/− NADPH: Clint (μL/min/mg protein) [2]	MH +/− NADPH: Clint (μL/min/million cells) [4]	HLM +/− NADPH: Clint (μL/min/mg protein) ([3]; 1 μM compound)
500 to 2000 nM	12 to 48 µL/min/mg	12 to 48 µL/min/mg	4 to 18 µL/min/1e6 cells	CC(C)(c1ccc(OCc2ncc(S(C)(=O)=O)[nH]2)cc1)c1cc(Cl)c(OCCCl)c(C#N)c1 [Compound A94]	–	–	–
> 2000 nM	≥ 48 µL/min/mg	12 to 48 µL/min/mg	≥ 18 µL/min/1e6 cells	CC(Oc1ccc(C(C)(O)c2cc(Cl)c(OCCCl)c(C#N)c2)cc1)c1ocnc1S(C)(=O)=O (centres unmarked) [Compound A95]	–	–	–
> 2000 nM	≥ 48 µL/min/mg	≥ 48 µL/min/mg	≥ 18 µL/min/1e6 cells	CC(C)(c1ccc(NC(=O)c2coc(S(C)(=O)=O)n2)cc1)c1cc(Cl)c(OCCCl)c(C#N)c1 [Compound A96]	–	–	–
< 500 nM	12 to 48 µL/min/mg	12 to 48 µL/min/mg	≥ 18 µL/min/1e6 cells	CC(C)(c1ccc(OCc2ocnc2S(C)(=O)=O)cc1)c1cc(Cl)c(OCC(Cl)CO)c(Cl)c1 (centres unmarked) [Compound A97]	–	–	–
500 to 2000 nM	< 12 µL/min/mg	< 12 µL/min/mg	< 4 µL/min/1e6 cells	CC(Oc1ccc(C(C)(C)c2cc(Cl)c(OCCCl)c(C#N)c2)cc1)c1ccnc(NS(C)(=O)=O)n1 (centres unmarked) [Compound A98]	–	–	–
500 to 2000 nM	12 to 48 µL/min/mg	< 12 µL/min/mg	4 to 18 µL/min/1e6 cells	Cc1nc(COc2ccc(C(C)(C)c3cc(Cl)c(OCCCl)c(C#N)c3)cc2)cc(NS(C)(=O)=O)n1 [Compound A99]	–	–	–
< 500 nM	≥ 48 µL/min/mg	≥ 48 µL/min/mg	≥ 18 µL/min/1e6 cells	CC(=O)Nc1nccc(COc2ccc(C(C)(C)c3cc(C)c(OCCCl)c(C#N)c3)cc2)n1 [Compound A100]	–	–	–
500 to 2000 nM	12 to 48 µL/min/mg	≥ 48 µL/min/mg	4 to 18 µL/min/1e6 cells	CC(C)(c1ccc(OCc2nnccc2NS(C)(=O)=O)cc1)c1cc(Cl)c(OCCCl)c(C#N)c1 [Compound A101]	–	–	–
< 500 nM	< 12 µL/min/mg	12 to 48 µL/min/mg	< 4 µL/min/1e6 cells	CC(C)(c1ccc(OCc2ccnnc2NS(C)(=O)=O)cc1)c1cc(Cl)c(OCCCl)c(C#N)c1 [Compound A102]	–	–	–
< 500 nM	–	12 to 48 µL/min/mg	–	CC(C)(c1ccc(OCc2nccnc2NS(C)(=O)=O)cc1)c1cc(Cl)c(OCCCl)c(C#N)c1 [Compound A103]	** (** represents Cl in the range of 12-48 μL/min/mg protein)	*** (*** represent Cl < 4 cells μL/min/million cells)	–
< 500 nM	–	–	–	CC(C)(c1ccc(OCc2nccnc2NS(C)(=O)=O)cc1)c1cc(Cl)c(OCCCl)c(C#N)c1 [Compound A104]	* (* represents Cl in the range of ≥48 μL/min/mg protein)	* (* represents Cl in the range of ≥18 μL/min/million cells)	** (** represents Cl in the range of 12-48 μL/min/mg protein)
> 2000 nM	≥ 48 µL/min/mg	12 to 48 µL/min/mg	≥ 18 µL/min/1e6 cells	CC(N)(c1ccc(OCc2ocnc2S(C)(=O)=O)cc1)c1cc(Cl)c(OCCCl)c(C#N)c1 (centres unmarked) [Compound A105]	–	–	–
500 to 2000 nM	≥ 48 µL/min/mg	< 12 µL/min/mg	≥ 18 µL/min/1e6 cells	C[C@](O)(c1ccc(OCc2ocnc2S(C)(=O)=O)cc1)c1cc(Cl)c(OCCCl)c(C#N)c1 [Compound A108]	–	–	–
< 500 nM	12 to 48 µL/min/mg	12 to 48 µL/min/mg	4 to 18 µL/min/1e6 cells	CSc1ncc(COc2ccc(C(C)(C)c3cc(Cl)c(OCCCl)c(Cl)c3)cc2)o1 [Compound A111]	–	–	–
< 500 nM	12 to 48 µL/min/mg	< 12 µL/min/mg	4 to 18 µL/min/1e6 cells	COc1ncc(COc2ccc(C(C)(C)c3cc(Cl)c(OCCCl)c(C#N)c3)cc2)o1 [Compound A112, 3-chloro-2-(2-chloroethoxy)-5-(2-(4-((2-methoxyoxazol-5-yl)methoxy)phenyl)propan-2-yl)benzonitrile]	–	–	–
> 2000 nM	12 to 48 µL/min/mg	12 to 48 µL/min/mg	≥ 18 µL/min/1e6 cells	CC(C)(c1ccc(OCc2cnc(C#N)o2)cc1)c1cc(Cl)c(OCCCl)c(C#N)c1 [Compound A113]	–	–	–
500 to 2000 nM	12 to 48 µL/min/mg	< 12 µL/min/mg	≥ 18 µL/min/1e6 cells	CC(C)(c1ccc(OCc2cnc(C(N)=O)o2)cc1)c1cc(Cl)c(CCCCl)c(C#N)c1 [Compound A114]	–	–	–
